Columns and labels:
[1] = biological target: Calcium/calmodulin-dependent protein kinase type 1 (Homo sapiens) (UniProt Q14012); test: Inhibition of human CaMK1 assessed as residual activity at 1 uM relative to control
[2] = biological target: Glycogen synthase kinase-3 alpha (Homo sapiens) (UniProt P49840); test: Inhibition of human GSK3alpha assessed as residual activity at 1 uM relative to control
[3] = biological target: Serine/threonine-protein kinase pim-2 (Homo sapiens) (UniProt Q9P1W9); test: Inhibition of human PIM-2 assessed as residual activity at 1 uM relative to control
Serine/threonine-protein kinase pim-2 (Homo sapiens), sequence (Q9P1W9 whole entry, looked up): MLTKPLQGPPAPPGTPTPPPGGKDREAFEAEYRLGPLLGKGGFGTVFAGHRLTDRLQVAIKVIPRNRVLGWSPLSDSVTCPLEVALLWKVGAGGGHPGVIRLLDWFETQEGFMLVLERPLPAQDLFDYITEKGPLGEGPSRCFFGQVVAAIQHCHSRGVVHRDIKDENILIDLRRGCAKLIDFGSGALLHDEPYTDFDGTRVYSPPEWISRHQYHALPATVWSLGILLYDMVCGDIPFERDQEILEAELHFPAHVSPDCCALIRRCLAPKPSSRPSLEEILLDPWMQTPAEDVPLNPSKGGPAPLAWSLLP

[4] = biological target: PI3K p110 beta/p85 alpha (Homo sapiens) (UniProt P27986+P42338); test: Inhibition of human PI3K p110beta/p85alpha assessed as residual activity at 1 uM relative to control; assay type: protein-complex assay
[5] = biological target: PI3-kinase p110-alpha/p85-alpha (Homo sapiens) (UniProt P27986+P42336); test: Inhibition of human PI3K p110alpha/p85alpha assessed as residual activity at 1 uM relative to control; assay type: protein-complex assay
[6] = biological target: Phosphatidylinositol 4-phosphate 5-kinase type-1 gamma (Homo sapiens) (UniProt O60331); test: Inhibition of human PIP5K1gamma assessed as residual activity at 1 uM relative to control
Phosphatidylinositol 4-phosphate 5-kinase type-1 gamma (Homo sapiens), sequence (O60331 whole entry): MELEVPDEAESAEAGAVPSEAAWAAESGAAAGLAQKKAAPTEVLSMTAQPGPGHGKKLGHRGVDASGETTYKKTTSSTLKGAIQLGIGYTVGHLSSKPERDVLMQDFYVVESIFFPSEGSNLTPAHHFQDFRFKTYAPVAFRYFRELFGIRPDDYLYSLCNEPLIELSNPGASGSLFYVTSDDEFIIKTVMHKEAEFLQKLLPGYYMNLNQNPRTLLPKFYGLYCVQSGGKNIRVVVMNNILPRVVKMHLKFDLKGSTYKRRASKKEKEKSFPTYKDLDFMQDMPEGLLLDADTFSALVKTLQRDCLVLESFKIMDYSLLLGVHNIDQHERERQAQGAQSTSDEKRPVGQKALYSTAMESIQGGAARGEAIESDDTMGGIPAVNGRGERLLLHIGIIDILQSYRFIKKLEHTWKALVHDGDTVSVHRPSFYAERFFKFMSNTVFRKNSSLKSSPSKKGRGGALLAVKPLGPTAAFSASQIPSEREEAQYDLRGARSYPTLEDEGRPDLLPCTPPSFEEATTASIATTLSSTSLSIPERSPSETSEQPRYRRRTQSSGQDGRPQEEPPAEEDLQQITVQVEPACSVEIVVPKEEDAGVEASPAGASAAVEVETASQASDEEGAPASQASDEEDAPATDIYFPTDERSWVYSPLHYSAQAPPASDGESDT

[7] = biological target: Fibroblast growth factor receptor 3 (Homo sapiens) (UniProt P22607); test: Inhibition of human FGFR3 assessed as residual activity at 1 uM relative to control
[8] = biological target: T1, NUAK family SNF1-like kinase 1 (Homo sapiens) (UniProt O60285); test: Inhibition of human ARK5 assessed as residual activity at 1 uM relative to control
T1 sequence (whole entry): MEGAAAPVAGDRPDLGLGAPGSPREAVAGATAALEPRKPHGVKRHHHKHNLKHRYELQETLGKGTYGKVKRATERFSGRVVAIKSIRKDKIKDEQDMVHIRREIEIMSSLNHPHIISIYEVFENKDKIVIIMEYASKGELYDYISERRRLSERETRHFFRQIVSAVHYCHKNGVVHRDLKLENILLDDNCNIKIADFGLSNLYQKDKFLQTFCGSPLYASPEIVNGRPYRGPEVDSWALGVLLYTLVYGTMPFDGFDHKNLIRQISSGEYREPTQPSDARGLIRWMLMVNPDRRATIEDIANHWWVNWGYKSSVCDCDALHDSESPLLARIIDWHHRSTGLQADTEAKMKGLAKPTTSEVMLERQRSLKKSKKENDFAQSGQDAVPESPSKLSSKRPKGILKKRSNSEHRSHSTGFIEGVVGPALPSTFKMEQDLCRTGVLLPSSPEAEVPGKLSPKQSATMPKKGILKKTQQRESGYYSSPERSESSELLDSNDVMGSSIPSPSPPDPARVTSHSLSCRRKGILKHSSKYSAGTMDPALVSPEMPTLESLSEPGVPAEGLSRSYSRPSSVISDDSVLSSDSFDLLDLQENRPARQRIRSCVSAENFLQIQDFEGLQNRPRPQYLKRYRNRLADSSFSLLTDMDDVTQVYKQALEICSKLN

[9] = biological target: Ephrin type-A receptor 5 (Homo sapiens) (UniProt P54756); test: Inhibition of human EPHA5 assessed as residual activity at 1 uM relative to control
[10] = biological target: Insulin receptor-related protein (Homo sapiens) (UniProt P14616); test: Inhibition of human IRR assessed as residual activity at 1 uM relative to control
[11] = biological target: Tyrosine-protein kinase Lyn (Homo sapiens) (UniProt P07948); test: Inhibition of human LYN assessed as residual activity at 1 uM relative to control
[12] = biological target: Tyrosine-protein kinase ABL2 (Homo sapiens) (UniProt P42684); test: Inhibition of human ARG assessed as residual activity at 1 uM relative to control
Tyrosine-protein kinase ABL2 (Homo sapiens), sequence (P42684 whole entry): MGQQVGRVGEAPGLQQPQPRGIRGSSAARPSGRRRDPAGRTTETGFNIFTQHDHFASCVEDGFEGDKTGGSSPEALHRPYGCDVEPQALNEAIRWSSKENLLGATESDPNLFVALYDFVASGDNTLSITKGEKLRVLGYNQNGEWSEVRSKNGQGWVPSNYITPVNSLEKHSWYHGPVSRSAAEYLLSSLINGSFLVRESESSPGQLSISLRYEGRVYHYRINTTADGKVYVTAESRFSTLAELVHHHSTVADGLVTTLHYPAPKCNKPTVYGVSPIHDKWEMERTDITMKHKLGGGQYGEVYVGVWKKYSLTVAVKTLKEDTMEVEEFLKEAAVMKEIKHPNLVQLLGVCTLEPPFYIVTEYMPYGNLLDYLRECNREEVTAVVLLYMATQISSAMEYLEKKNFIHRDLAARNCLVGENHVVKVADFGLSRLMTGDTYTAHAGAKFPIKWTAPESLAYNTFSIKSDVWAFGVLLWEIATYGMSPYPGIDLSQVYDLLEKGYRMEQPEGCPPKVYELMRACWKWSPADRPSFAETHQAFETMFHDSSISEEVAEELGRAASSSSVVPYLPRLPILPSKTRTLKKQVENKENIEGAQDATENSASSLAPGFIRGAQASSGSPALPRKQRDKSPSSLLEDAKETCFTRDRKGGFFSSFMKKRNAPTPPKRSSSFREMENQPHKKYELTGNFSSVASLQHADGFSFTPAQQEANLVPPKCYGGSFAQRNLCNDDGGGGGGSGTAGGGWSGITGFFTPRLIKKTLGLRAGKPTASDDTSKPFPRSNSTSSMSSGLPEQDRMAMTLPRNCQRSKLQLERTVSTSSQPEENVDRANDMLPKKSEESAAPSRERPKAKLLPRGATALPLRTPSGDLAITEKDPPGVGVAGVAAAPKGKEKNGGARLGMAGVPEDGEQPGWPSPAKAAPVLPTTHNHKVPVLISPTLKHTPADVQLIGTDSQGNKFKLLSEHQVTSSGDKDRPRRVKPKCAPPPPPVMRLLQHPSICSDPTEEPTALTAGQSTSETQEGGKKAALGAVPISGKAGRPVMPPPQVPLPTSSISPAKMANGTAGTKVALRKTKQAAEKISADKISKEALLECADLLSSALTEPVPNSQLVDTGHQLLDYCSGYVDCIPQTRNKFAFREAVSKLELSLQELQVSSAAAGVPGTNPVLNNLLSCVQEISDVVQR

[13] = system: Proto-oncogene tyrosine-protein kinase receptor Ret (Homo sapiens), P07949 [V804M]; test: Inhibition of human RET V804M mutant assessed as residual activity at 1 uM relative to control
Proto-oncogene tyrosine-protein kinase receptor Ret (Homo sapiens), P07949 [V804M], sequence (P07949 whole entry V804M): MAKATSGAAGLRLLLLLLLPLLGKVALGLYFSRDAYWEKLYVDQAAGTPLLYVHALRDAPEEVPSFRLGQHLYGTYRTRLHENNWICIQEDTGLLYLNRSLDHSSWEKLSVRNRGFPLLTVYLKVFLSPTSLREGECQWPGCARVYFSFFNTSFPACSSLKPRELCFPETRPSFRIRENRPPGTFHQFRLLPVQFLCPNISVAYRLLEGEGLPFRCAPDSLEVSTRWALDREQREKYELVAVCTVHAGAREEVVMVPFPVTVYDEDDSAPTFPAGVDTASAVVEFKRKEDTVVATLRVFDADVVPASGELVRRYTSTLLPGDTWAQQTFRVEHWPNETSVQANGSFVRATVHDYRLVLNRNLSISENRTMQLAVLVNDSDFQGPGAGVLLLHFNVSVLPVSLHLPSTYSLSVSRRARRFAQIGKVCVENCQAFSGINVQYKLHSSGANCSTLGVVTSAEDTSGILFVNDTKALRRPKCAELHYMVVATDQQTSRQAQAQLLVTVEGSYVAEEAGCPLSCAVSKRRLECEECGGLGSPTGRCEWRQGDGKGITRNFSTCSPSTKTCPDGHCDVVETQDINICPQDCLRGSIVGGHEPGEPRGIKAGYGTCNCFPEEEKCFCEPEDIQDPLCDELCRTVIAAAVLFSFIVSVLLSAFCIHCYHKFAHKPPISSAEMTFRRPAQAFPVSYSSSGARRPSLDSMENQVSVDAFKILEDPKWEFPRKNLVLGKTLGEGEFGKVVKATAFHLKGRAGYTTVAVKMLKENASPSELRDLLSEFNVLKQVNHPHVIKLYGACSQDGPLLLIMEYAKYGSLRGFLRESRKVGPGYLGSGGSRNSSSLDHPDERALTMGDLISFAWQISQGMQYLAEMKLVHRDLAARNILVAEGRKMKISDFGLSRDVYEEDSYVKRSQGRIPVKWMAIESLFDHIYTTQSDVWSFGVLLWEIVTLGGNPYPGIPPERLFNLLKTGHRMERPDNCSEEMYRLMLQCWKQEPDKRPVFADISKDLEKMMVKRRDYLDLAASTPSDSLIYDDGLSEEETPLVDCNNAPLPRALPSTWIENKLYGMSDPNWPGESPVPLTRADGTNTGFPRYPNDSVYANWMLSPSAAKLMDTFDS

[14] = biological target: T2, Serine/threonine-protein kinase TBK1 (Homo sapiens, UniProt Q9UHD2); test: Inhibition of TBK1 in HEK293 cells after 4.5 hrs by ISRE-luciferase reporter gene assay in presence of poly I:C; assay type: cell-based
T2 sequence (Q9UHD2 whole entry): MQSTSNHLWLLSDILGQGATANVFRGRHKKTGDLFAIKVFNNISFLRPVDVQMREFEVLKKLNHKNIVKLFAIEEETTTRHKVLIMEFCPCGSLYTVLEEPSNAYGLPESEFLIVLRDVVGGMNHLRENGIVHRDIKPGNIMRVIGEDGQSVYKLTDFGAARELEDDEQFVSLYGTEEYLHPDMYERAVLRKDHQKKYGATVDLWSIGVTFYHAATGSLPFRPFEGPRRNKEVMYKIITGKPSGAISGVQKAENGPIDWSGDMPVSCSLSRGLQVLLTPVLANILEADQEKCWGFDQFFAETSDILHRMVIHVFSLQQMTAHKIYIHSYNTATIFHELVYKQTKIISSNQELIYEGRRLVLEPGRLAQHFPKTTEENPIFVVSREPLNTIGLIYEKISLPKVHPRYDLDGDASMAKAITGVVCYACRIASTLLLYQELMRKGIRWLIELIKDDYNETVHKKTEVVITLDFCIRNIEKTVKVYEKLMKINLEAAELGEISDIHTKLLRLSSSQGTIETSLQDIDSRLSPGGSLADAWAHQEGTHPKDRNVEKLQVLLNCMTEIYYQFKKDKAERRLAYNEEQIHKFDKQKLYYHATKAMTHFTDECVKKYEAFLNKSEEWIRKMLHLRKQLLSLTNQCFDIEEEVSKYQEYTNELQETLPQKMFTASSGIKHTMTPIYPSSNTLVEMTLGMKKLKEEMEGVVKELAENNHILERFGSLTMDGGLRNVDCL

[15] = biological target: Cyclin-dependent kinase 2 (Homo sapiens, UniProt P24941); test: Inhibition of CDK2 (unknown origin)
[16] = biological target: T2, Serine/threonine-protein kinase TBK1; test: Inhibition of recombinant full-length TBK1 (unknown origin) using CK1tide as substrate by microfluidic mobility shift assay
[17] = biological target: Ribosomal protein S6 kinase alpha-5 (Homo sapiens) (UniProt O75582); test: Inhibition of human MSK1 assessed as residual activity at 1 uM relative to control
[18] = system: Fibroblast growth factor receptor 1 (Homo sapiens), P11362 [V561M]; test: Inhibition of human FGFR1 V561M mutant assessed as residual activity at 1 uM relative to control
Fibroblast growth factor receptor 1 (Homo sapiens), P11362 [V561M], sequence (P11362 whole entry V561M): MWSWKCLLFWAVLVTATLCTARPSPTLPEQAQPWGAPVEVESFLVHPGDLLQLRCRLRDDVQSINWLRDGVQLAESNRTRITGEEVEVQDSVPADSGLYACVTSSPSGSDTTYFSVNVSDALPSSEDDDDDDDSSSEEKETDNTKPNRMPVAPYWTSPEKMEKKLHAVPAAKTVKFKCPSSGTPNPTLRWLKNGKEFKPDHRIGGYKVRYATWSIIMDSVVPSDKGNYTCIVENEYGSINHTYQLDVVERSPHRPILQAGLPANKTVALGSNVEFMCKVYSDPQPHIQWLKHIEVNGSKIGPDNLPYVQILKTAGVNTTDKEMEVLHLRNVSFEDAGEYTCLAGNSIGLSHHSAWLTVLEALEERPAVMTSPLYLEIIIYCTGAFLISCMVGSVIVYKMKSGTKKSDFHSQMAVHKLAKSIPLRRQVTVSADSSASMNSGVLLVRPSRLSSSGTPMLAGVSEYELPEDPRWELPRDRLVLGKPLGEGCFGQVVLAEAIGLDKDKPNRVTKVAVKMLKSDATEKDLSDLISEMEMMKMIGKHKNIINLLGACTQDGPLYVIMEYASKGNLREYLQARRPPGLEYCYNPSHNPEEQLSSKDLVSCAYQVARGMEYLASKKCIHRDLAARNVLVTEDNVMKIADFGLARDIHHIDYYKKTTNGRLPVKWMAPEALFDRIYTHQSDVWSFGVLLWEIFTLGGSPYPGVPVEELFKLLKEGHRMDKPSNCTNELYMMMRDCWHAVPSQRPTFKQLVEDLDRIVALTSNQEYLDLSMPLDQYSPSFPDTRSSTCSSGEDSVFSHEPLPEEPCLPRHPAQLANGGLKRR

[19] = biological target: 3-phosphoinositide-dependent protein kinase 1 (Homo sapiens) (UniProt O15530); test: Inhibition of human PDK1 assessed as residual activity at 1 uM relative to control

Glycogen synthase kinase-3 alpha (Homo sapiens), sequence (P49840 2-483 limits assumed): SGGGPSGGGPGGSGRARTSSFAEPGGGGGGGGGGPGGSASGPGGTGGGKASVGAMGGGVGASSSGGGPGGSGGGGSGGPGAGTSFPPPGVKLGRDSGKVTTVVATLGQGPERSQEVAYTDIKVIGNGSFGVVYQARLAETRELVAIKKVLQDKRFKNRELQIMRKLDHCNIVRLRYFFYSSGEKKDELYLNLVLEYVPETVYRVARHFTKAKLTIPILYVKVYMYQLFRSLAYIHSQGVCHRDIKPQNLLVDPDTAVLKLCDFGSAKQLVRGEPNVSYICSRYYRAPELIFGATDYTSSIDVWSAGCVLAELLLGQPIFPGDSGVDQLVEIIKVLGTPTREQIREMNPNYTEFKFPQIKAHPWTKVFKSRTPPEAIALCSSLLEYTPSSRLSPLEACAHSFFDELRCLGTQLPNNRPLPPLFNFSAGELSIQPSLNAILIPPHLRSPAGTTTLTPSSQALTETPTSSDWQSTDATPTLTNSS
Calcium/calmodulin-dependent protein kinase type 1 (Homo sapiens), sequence (Q14012 whole entry, looked up): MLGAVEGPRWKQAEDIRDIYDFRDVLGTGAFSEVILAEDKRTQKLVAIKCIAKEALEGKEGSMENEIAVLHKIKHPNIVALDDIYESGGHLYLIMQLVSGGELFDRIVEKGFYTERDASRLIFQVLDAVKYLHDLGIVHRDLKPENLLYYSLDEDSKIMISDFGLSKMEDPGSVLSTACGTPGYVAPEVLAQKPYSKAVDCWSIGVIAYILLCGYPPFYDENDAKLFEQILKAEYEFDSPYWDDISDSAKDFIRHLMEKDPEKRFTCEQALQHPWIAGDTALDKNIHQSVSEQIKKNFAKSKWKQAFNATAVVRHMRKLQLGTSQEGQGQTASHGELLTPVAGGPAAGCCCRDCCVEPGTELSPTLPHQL

| Compound | Activity [1] [%] | Activity [2] [%] | Activity [3] [%] | Activity [4] [%] | Activity [5] [%] | Activity [6] [%] | Activity [7] [%] | Activity [8] [%] | Activity [9] [%] | Activity [10] [%] | Activity [11] [%] | Activity [12] [%] | Activity [13] [%] | IC50 [14] [µM] | IC50 [15] [µM] | IC50 [16] [µM] | Activity [17] [%] | Activity [18] [%] | Activity [19] [%] |
| --- | --- | --- | --- | --- | --- | --- | --- | --- | --- | --- | --- | --- | --- | --- | --- | --- | --- | --- | --- |
| COc1ccc(-c2nc3cc(-c4csc(C(=O)NCC(C)(C)C)c4)cnc3[nH]2)cc1 | 97 | 95 | 93 | 89 | 86 | 86 | 80 | 79 | 77 | 70 | 61 | 60 | 24 | 0.03 | > 30 | 0.084 | 104 | 104 | 85 |
| COc1ccc(-c2nc3cc(-c4csc(C(=O)NCCC(C)C)c4)cnc3[nH]2)cc1 | 83 | 102 | 94 | 92 | 88 | 93 | 79 | 76 | 76 | 80 | 39 | 52 | 9 | 0.078 | > 30 | 0.143 | 104 | 90 | 80 |
| COc1ccc(-c2nc3cc(-c4csc(C(=O)NCC(C)C)c4)cnc3[nH]2)cc1 | 102 | 92 | 90 | 89 | 91 | 88 | 62 | 68 | 72 | 92 | 46 | 38 | 15 | 0.037 | > 30 | 0.077 | 100 | 85 | 91 |

From ChEMBL document CHEMBL3124838, “Discovery of 6-aryl-azabenzimidazoles that inhibit the TBK1/IKK-ε kinases” (Bioorg Med Chem Lett, 2014)
